From patent publication US6939855B2, “Anti-inflammatory compositions and method” (Elan Pharmaceuticals, Inc., priority 1997, dated 2005)

Tested on: human neutrophils
Test: Expression of alpha-9 integrin on human neutrophils following activation
Format: cell-based
Details: compared to isotype control marker (FIG. 2)
Description: In this experiment, alpha-9 subunit, alpha-4 subunit and beta-1 subunit were measured after reacting human neutrophils with fluorescently labeled antibodies specifically reactive with each of the foregoing subunits.
Formyl-Met-Leu-Phe (fMLP) is an activation factor that is involved in inflammation. […] This increased expression is consistent with alpha-9 involvement in activation of neutrophils during inflammation.

## Formyl-Met-Leu-Phe [fMLP]
  alpha-9 integrin expression following activation: significantly and selectively increased
